From paper PMC8047676 (ACS Omega, 2021)
Converted amounts (≈) assume the structure as drawn. “And” between values parts separate entries of the source, which are not always exact repeats. Equal entries are not always repeated.

Assays:
CHIKV [1] = details: Vero A cells, cited from earlier work
CHIKV [2] = details: cited from earlier work
[3] = MTT cellular cytotoxicity assay; assay type: cell-based; details: hamster, BHK-21 cells
BHK-21 cells = assay: Microscopic observation of cell morphology; assay type: cell-based, hamster; details: 5, 10 and 20 μM, 24 h, microscope
[4] = system: CHIKV prototype strain S27; assay: Plaque assay of CHIKV-infected BHK-21 cells; assay type: cell-based, Chikungunya virus (CHIKV); details: for plaque numbers reduced: BHK-21 cells, CHIKV S27 MOI 0.01, 24 hpi
CHIKV nsP2 RNA = assay: RT-PCR of CHIKV nsP2 RNA in infected BHK-21 cells; assay type: cell-based, Chikungunya virus (CHIKV); details: 24 h post treatment, normalized to GAPDH
CHIKV E2 RNA = assay: RT-PCR of CHIKV E2 RNA in infected BHK-21 cells; assay type: cell-based, Chikungunya virus (CHIKV); details: 24 h post treatment, normalized to GAPDH
[5] = system: CHIKV nonstructural protein nsP2; assay: Western blot of CHIKV nsP2 protein in infected BHK-21 cells; assay type: cell-based, Chikungunya virus (CHIKV); details: 24 h
[6] = system: CHIKV envelope E2 glycoprotein; assay: Western blot of CHIKV E2 protein in infected BHK-21 cells; assay type: cell-based, Chikungunya virus (CHIKV); details: 24 h
CHIKV nsP2 protein = assay: Flow cytometry of nsP2 protein expression in infected BHK-21 cells; assay type: cell-based, Chikungunya virus (CHIKV); details: for numbers of cells expressing nsP2 protein reduced: flow cytometry, 24 h post treatment
CHIKV E2 protein = assay: Flow cytometry of E2 protein expression in infected BHK-21 cells; assay type: cell-based, Chikungunya virus (CHIKV); details: for percentages of infected cells showing E2 expression reduced: flow cytometry, 24 h post treatment
[7] = ribavirin treatment, concentration not given

SMILES: CCN(CC)CCCC(C)Nc1ccnc2cc(Cl)ccc12 (centres unmarked) [Chloroquine]
- IC50 (CHIKV [1]; read-out: IC50, inhibition of CHIKV replication): 7 µM
- IC90 (CHIKV [1]; read-out: IC90, inhibition of CHIKV replication): 15 µM
- IC50, antiviral effects in vitro (CHIKV [2]): 1.1 µg/mL (≈ 3.44 µM)

SMILES: Cn1c(=O)c(C(=O)CCN2CCOCC2)c(O)c2ccccc21 [QVIR, 4-hydroxy-1-methyl-3-(3-morpholinopropanoyl)quinoline-2(1H)-one]
- CC50 at 24 h [3]: > 200 µM
- morphological changes of BHK-21 cells (BHK-21 cells): inertness
- plaque numbers reduced ([4]; 5 μM): 82.62%
- plaque numbers reduced ([4]; 10 μM): 97.86%
- plaque numbers reduced ([4]; 20 μM): 99.61%
- EC50 ([4]; Chikungunya virus, BHK-21, 24 h, read-out: EC50 (50% effective concentration) against CHIKV infection): 2.2 ± 0.49 µM
- RNA levels of nsP2 decreased (CHIKV nsP2 RNA; 5 μM): 52.1%
- RNA levels of nsP2 decreased (CHIKV nsP2 RNA; 10 μM): 67.5%
- RNA levels of nsP2 decreased (CHIKV nsP2 RNA; 20 μM): 84% and 84.1%
- RNA levels of E2 diminished (CHIKV E2 RNA; 5 μM): 39%
- RNA levels of E2 diminished (CHIKV E2 RNA; 10 μM): 55.6%
- RNA levels of E2 diminished (CHIKV E2 RNA; 20 μM): 74%
- protein levels of nsP2 reduced ([5]; 10 μM): 63.4%
- protein levels of nsP2 reduced ([5]; 20 μM): 69.9%
- E2 protein levels suppressed ([6]; 5 μM): 22.8%
- E2 protein levels suppressed ([6]; 10 μM): 45.8%
- E2 protein levels suppressed ([6]; 20 μM): 53.9%
- numbers of cells expressing nsP2 protein reduced (CHIKV nsP2 protein; 5 μM): 43.25%
- numbers of cells expressing nsP2 protein reduced (CHIKV nsP2 protein; 10 μM): 54.04%
- numbers of cells expressing nsP2 protein reduced (CHIKV nsP2 protein; 20 μM): 71.48%
- percentages of infected cells showing E2 expression reduced (CHIKV E2 protein; 5 μM): 44.60%
- percentages of infected cells showing E2 expression reduced (CHIKV E2 protein; 10 μM): 51.22%
- percentages of infected cells showing E2 expression reduced (CHIKV E2 protein; 20 μM): 67.7%

SMILES: NC(=O)c1ncn([C@@H]2O[C@H](CO)[C@@H](O)[C@H]2O)n1 [Ribavirin, reference compound]
- plaque numbers reduced ([4]; 10 μM): 99.15%
- RNA levels of nsP2 decreased (CHIKV nsP2 RNA; 10 μM): 82.7%
- RNA levels of E2 diminished (CHIKV E2 RNA; 10 μM): 75.8%
- viral nsP2 protein level by flow cytometry (CHIKV nsP2 protein; [7]): decreased
- viral E2 protein level by flow cytometry (CHIKV E2 protein; [7]): decreased

SMILES: C=C[C@H]1C[N@@]2CC[C@H]1C[C@H]2[C@H](O)c1ccnc2ccc(OC)cc12 [quinine]
- IC50, inhibits CHIKV in vitro (CHIKV [2]): 0.1 µg/mL (≈ 0.308 µM)
